Results published in BindingDB's records for doi:10.1111/j.1747-0285.2012.01362.x (Washington University, 2012).

What follows are compounds tested against T1, PhoP (Salmonella enterica I, UniProt A6XC03) (assay: Inhibition Assay).
T1 sequence (A6XC03 whole entry): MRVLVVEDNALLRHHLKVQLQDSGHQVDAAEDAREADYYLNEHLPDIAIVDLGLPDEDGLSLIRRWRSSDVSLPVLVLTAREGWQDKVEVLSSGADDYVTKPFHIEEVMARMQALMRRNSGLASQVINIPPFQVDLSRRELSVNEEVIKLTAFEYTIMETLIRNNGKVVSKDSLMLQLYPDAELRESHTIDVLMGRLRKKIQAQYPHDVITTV
From the text: Inhibition of a protein-protein activity by EMSA assay.

**Q.** `O=C1c2ccccc2C(=O)c2c1ccc(C(=O)O)c2-c1cccc2ccccc12` [NSC9608, 1] was tested. Which IC50 did it give?
**A.** 11000 µM

**Q.** How did the IC50 turn out when `O=C(C[n+]1ccc2ccccc2c1)c1ccc2ccc3ccccc3c2c1` [NSC35489, 4] was run?
**A.** 14000 µM

**Q.** For `O=S(=O)(O)c1ccc2c(N=Nc3c(O)ccc4ccccc34)cccc2c1` [NSC45576, 2], which IC50 is on record?
**A.** 12 µM

**Q.** With `CN(C)CCC(=O)C1(O)CCC2C3CC=C4CC(O)CCC4(C)C3CCC21C` (stereo not drawn) [NSC48630, 3] as the compound, how does the IC50 read?
**A.** 3.6 µM

**Q.** `CC(C)c1ccc2c(c1)CCC1C(C)(CN)CCCC21C` (stereo not drawn) [NSC65238, 5] was tested. Which IC50 did it give?
**A.** 20 µM

**Q.** `CC12CCC(=O)C=C1CCC1C2CCC2(C)C(C(=O)COS(=O)(=O)c3ccc(Br)cc3)CCC12` (stereo not drawn) [NSC88915, 6] was tested. Which IC50 did it give?
**A.** 17 µM

**Q.** How did the IC50 turn out when `c1ccc(C[n+]2cccc(-c3cc4ccccc4[nH]3)c2)cc1` [NSC118806, 7] was run?
**A.** 109 µM

**Q.** With `N#Cc1ccc(OC(=O)c2ccc(NC(=N)N)cc2)cc1` [NSC168197, 8] as the compound, how does the IC50 read?
**A.** 285 µM
